Each structure is given as a SMILES string.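 Method: 48-hour compound exposure of cells in 96-well plates, five concentrations, linear interpolation of endpoints. TGI denotes the concentration required for complete inhibition of growth.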

The test system of the first assay is OVCAR-8 ovarian. The experiment in a line: DTP human tumour cell line panel, 48 h.
On to `N[C@@H]1CCN(c2c(F)cc3c(=O)c(C(=O)O)cn4c3c2Oc2c-4ccc3c2ccc2ccccc23)C1`, for which the TGI is greater than 100 µM.

The compound `COc1c(=O)cc2cc[nH]c3cc[nH]c1c23` had a TGI greater than 100 µM.

The compound `CCCCC1(NN=C2CCCCC2)C(=O)N(c2ccccc2)N(c2ccccc2)C1=O` had a TGI greater than 100 µM.

In turn, `Cc1nc2ccc(Br)cc2c(=O)n1-c1nnc(C(C)(C)C)s1` returned a TGI greater than 10 µM.

For `Cc1ccc(C2(O)CSC(=NC34CC5CC(CC(C5)C3)C4)N2C(P(=O)(O)O)P(=O)(O)O)cc1` (stereo unspecified), the TGI was greater than 100 µM.

Consider `CCOC(=O)c1sc(=S)n(-c2ccc(Cl)cc2)c1-n1cc(-c2ccccc2)c(C#N)c1N`, for which the TGI turned out to be 27.1 µM.

For the compound `COC1(OC)N=C(N)C2(C#N)C(c3ccccc3)NC3=C(CCC3)C12C#N` (stereo unspecified), the TGI is greater than 100 µM.

As to `COC(=O)[C@@H]1C[C@H]2OC(=O)CC[C@]2(C)O[C@H]1[C@H]1O[C@@](C)(O)CCC[C@H]1C`, the TGI is greater than 50 µM.

`CN(/N=C/c1ccc(C(=O)O)cc1)C1=NCCCCN1` returned a concentration for total growth inhibition (TGI) greater than 100 µM.

Turning to `Cc1c(N2C(=O)C(Cl)C2/C=C/c2ccccc2)c(=O)n(-c2ccccc2)n1C` (stereo unspecified), the TGI was found to be 56.4 µM.

The compound `CC[C@@H](C)[C@H](NC(=O)[C@H](Cc1ccccc1)NCC(F)(F)F)C(=O)OC(C)(C)C` gave a TGI greater than 100 µM.

As for `Nc1ccccc1CCN1CCN(CCCc2ccccc2)CC1`, the TGI is greater than 100 µM.

As for `O=c1oc2ccccc2c(Nc2ccc3c(c2)Sc2ccccc2O3)c1[N+](=O)[O-]`, the TGI was greater than 100 µM.

The next assay deals with NCI-H226 lung. The experiment in a line: DTP human tumour cell line panel, 48 h.
Compound `O=C(O)CO[C@@]12C#C/C=C\C#C[C@@H]3N(C(=O)Oc4ccccc4)c4ccccc4[C@]14O[C@@]34CCC2` registered a TGI greater than 100 µM.

In turn, `N[C@@H]1CCN(c2c(F)cc3c(=O)c(C(=O)O)cn4c3c2Oc2c-4ccc3c2ccc2ccccc23)C1` registered a TGI greater than 100 µM.

Regarding `COc1c(=O)cc2cc[nH]c3cc[nH]c1c23`, the TGI is greater than 100 µM.

Take `Cc1nc2ccc(Br)cc2c(=O)n1-c1nnc(C(C)(C)C)s1`: the concentration for total growth inhibition (TGI) is greater than 10 µM.

The compound `Cc1ccc(C2(O)CSC(=NC34CC5CC(CC(C5)C3)C4)N2C(P(=O)(O)O)P(=O)(O)O)cc1` (stereo unspecified) came in with a TGI greater than 100 µM.

In turn, `CCOC(=O)c1sc(=S)n(-c2ccc(Cl)cc2)c1-n1cc(-c2ccccc2)c(C#N)c1N` gave a total growth inhibition concentration (TGI) of 43.5 µM.

For the compound `COC1(OC)N=C(N)C2(C#N)C(c3ccccc3)NC3=C(CCC3)C12C#N` (stereo unspecified), the TGI was greater than 100 µM.

Compound `COC(=O)[C@@H]1C[C@H]2OC(=O)CC[C@]2(C)O[C@H]1[C@H]1O[C@@](C)(O)CCC[C@H]1C` registered a TGI greater than 50 µM.

The compound `CN(/N=C/c1ccc(C(=O)O)cc1)C1=NCCCCN1` yielded a TGI greater than 100 µM.

In the case of `Cc1c(N2C(=O)C(Cl)C2/C=C/c2ccccc2)c(=O)n(-c2ccccc2)n1C` (stereo unspecified), the TGI worked out at 61.6 µM.

For `CC[C@@H](C)[C@H](NC(=O)[C@H](Cc1ccccc1)NCC(F)(F)F)C(=O)OC(C)(C)C`, the total growth inhibition concentration (TGI) was greater than 100 µM.

`Nc1ccccc1CCN1CCN(CCCc2ccccc2)CC1` yielded a TGI greater than 100 µM.

`O=c1oc2ccccc2c(Nc2ccc3c(c2)Sc2ccccc2O3)c1[N+](=O)[O-]` displayed a TGI of 76.5 µM.

For a further assay, the system named is EKVX NSCLC. The assay can be described thus: DTP human tumour cell line panel, 48 h.
`O=C(O)CO[C@@]12C#C/C=C\C#C[C@@H]3N(C(=O)Oc4ccccc4)c4ccccc4[C@]14O[C@@]34CCC2` came in with a TGI greater than 100 µM.

The compound `N[C@@H]1CCN(c2c(F)cc3c(=O)c(C(=O)O)cn4c3c2Oc2c-4ccc3c2ccc2ccccc23)C1` registered a concentration for total growth inhibition (TGI) greater than 100 µM.

On to `COc1c(=O)cc2cc[nH]c3cc[nH]c1c23`, for which the concentration for total growth inhibition (TGI) is greater than 100 µM.

Turning to `CCCCC1(NN=C2CCCCC2)C(=O)N(c2ccccc2)N(c2ccccc2)C1=O`, the TGI is greater than 100 µM.

For the compound `Cc1nc2ccc(Br)cc2c(=O)n1-c1nnc(C(C)(C)C)s1`, the TGI is greater than 10 µM.

`Cc1ccc(C2(O)CSC(=NC34CC5CC(CC(C5)C3)C4)N2C(P(=O)(O)O)P(=O)(O)O)cc1` (stereo unspecified) displayed a TGI greater than 100 µM.

As to `CCOC(=O)c1sc(=S)n(-c2ccc(Cl)cc2)c1-n1cc(-c2ccccc2)c(C#N)c1N`, the TGI is 94.7 µM.

Regarding `COC1(OC)N=C(N)C2(C#N)C(c3ccccc3)NC3=C(CCC3)C12C#N` (stereo unspecified), the TGI was greater than 100 µM.

Regarding `COC(=O)[C@@H]1C[C@H]2OC(=O)CC[C@]2(C)O[C@H]1[C@H]1O[C@@](C)(O)CCC[C@H]1C`, the TGI was greater than 50 µM.

In the case of `CN(/N=C/c1ccc(C(=O)O)cc1)C1=NCCCCN1`, the total growth inhibition concentration (TGI) was greater than 100 µM.

`Cc1c(N2C(=O)C(Cl)C2/C=C/c2ccccc2)c(=O)n(-c2ccccc2)n1C` (stereo unspecified) showed a TGI of 34.4 µM. This counts as double-digit micromolar.

As for `CC[C@@H](C)[C@H](NC(=O)[C@H](Cc1ccccc1)NCC(F)(F)F)C(=O)OC(C)(C)C`, the TGI is greater than 100 µM.

Compound `Nc1ccccc1CCN1CCN(CCCc2ccccc2)CC1` showed a TGI greater than 100 µM.

In turn, `O=c1oc2ccccc2c(Nc2ccc3c(c2)Sc2ccccc2O3)c1[N+](=O)[O-]` yielded a TGI of 90.6 µM.

For the next assay, the system named is HCC-2998 colon. The assay can be described thus: DTP human tumour cell line panel, 48 h.
For the compound `O=C(O)CO[C@@]12C#C/C=C\C#C[C@@H]3N(C(=O)Oc4ccccc4)c4ccccc4[C@]14O[C@@]34CCC2`, the TGI worked out at 28.7 µM.

On to `N[C@@H]1CCN(c2c(F)cc3c(=O)c(C(=O)O)cn4c3c2Oc2c-4ccc3c2ccc2ccccc23)C1`, for which the TGI amounted to 3.56 µM. This TGI lies about 8.1-fold lower than the previous one.

The compound `COc1c(=O)cc2cc[nH]c3cc[nH]c1c23` displayed a TGI greater than 100 µM.

In the case of `CCCCC1(NN=C2CCCCC2)C(=O)N(c2ccccc2)N(c2ccccc2)C1=O`, the TGI was greater than 100 µM.

`Cc1nc2ccc(Br)cc2c(=O)n1-c1nnc(C(C)(C)C)s1` displayed a TGI greater than 10 µM.

In the case of `Cc1ccc(C2(O)CSC(=NC34CC5CC(CC(C5)C3)C4)N2C(P(=O)(O)O)P(=O)(O)O)cc1` (stereo unspecified), the TGI is greater than 100 µM.

With `CCOC(=O)c1sc(=S)n(-c2ccc(Cl)cc2)c1-n1cc(-c2ccccc2)c(C#N)c1N`, the TGI was greater than 100 µM.

Compound `COC1(OC)N=C(N)C2(C#N)C(c3ccccc3)NC3=C(CCC3)C12C#N` (stereo unspecified) registered a TGI greater than 100 µM.

The compound `COC(=O)[C@@H]1C[C@H]2OC(=O)CC[C@]2(C)O[C@H]1[C@H]1O[C@@](C)(O)CCC[C@H]1C` yielded a TGI greater than 50 µM.

`CN(/N=C/c1ccc(C(=O)O)cc1)C1=NCCCCN1`: the TGI is greater than 100 µM.

For the compound `CC[C@@H](C)[C@H](NC(=O)[C@H](Cc1ccccc1)NCC(F)(F)F)C(=O)OC(C)(C)C`, the TGI was greater than 100 µM.

These data come from PubChem BioAssay (NCI).
